The record followed here is a melting point compilation (Tetko et al.).

Molecule `CCCCCCCOc1ccc(-c2ccc(C#N)cc2)cc1` returned a melting point of 54 °C.

With `CCc1c(O)c(=O)ccn1N1CCOCC1`, the melting point was 258 °C. As for `CCN(CC)CCNc1ccc(CO)c2sc3ccccc3c(=O)c12`, the figure is 101 °C. The value for `O=C(OC1OC(=O)c2ccccc21)c1ccccc1` (configuration not stated) was 133 to 135 °C.

`ON=Cc1ccc(Br)cc1` showed a melting point of 118 °C.

`Cc1ccc(N=Nc2ccccc2)cc1` yielded a melting point of 71.5 °C. The value for `Cn1c(/C(C#N)=N/Nc2cccc(O)c2)nc2ccccc21` was 285 °C; that for `CC(=O)OCCN(CCC#N)c1ccc(N=Nc2nc3ccc([N+](=O)[O-])cc3s2)cc1` was 167 °C. As for `COc1ccc(C(=O)c2noc(-c3ccc([N+](=O)[O-])cc3)c2S(=O)(=O)c2ccccc2)cc1`, the figure is 176 °C; as for `CCCCC(CC)CO` (configuration not stated), -70 °C. Consider `CC(C)c1ccncc1`, for which the melting point is -54.9 °C. In turn, `CCCCCCCCCCCCCCCCCC(=O)OCCOCCOCCOCCO` had a melting point of 40 °C.

With `N#C/C(=C\c1ccc(Cl)cc1)c1nc2ccccc2s1`, the melting point was found to be 150 °C.

`ClCc1c2ccccc2cc2ccccc12` had a melting point of 140 °C. As for `CC(C)=NNc1ccccc1`, the figure is 42 °C; as for `COC(=O)c1sc(SC)nc1N`, 104 °C; as for `Cc1cccc(C)c1NC1=NCCCS1`, 140 °C. For the molecule `COc1ccc(C(=O)N(NC(=O)c2ccccc2)C(C)(C)C)cc1OC`, the melting point was determined as 206 °C. As for `CCOC(=O)C1CCN(c2ncnc3ccsc23)CC1`, the figure is 64 to 66 °C; as for `NNc1ccc(S(=O)(=O)O)cc1`, 286 °C. For the molecule `O=C(Oc1c(F)c(F)c(F)c(F)c1F)Oc1c(F)c(F)c(F)c(F)c1F`, the melting point lay within 48 to 51 °C.

Turning to `O=C(Cl)N1c2ccccc2Sc2ccccc21`, the melting point lay in the range of 168 to 172 °C. As for `NC(=O)C1(N2C(=O)c3cccc(Cl)c3C2=O)CCCCC1`, the figure is 194 °C; as for `CCOC(=O)NN`, 46 °C.

The molecule `Cc1ccc(C(=O)NCC(=O)O)cc1` displayed a melting point of 162 to 166 °C.

Take `COc1ccc(-c2ocnc2C(=O)O)cc1`: the melting point was 147 to 151 °C.

`COC(=O)C(=O)CC(C)=O`: the melting point was 63 to 64 °C.

In the case of `Cc1nc(Cl)c(C(N)=O)c(C)c1Cl`, the melting point came out at 172 °C.

`Nc1ccc(C(F)(F)F)cc1Br`: the melting point was 29.5 °C.

In turn, `CCSc1nnc(C(C)(C)C)c(=O)n1N` registered a melting point of 95 °C. As to `CCOc1ccc2ccccc2c1C(=O)O`, the melting point came out at 144 °C. `COc1cc(O)c2c(=O)c3cc(O)ccc3oc2c1` yielded a melting point of 266 °C. The value for `FC(F)(F)C1(F)C(F)(F)C(F)(F)C(F)(F)C(F)(F)C1(F)C(F)(F)F` (configuration not stated) was -56 °C. The value for `O=C(O)c1ccccc1/N=N/C1SC(=S)N(c2ccccc2)C1=O` (configuration not stated) was 199 °C. As for `Cc1[nH]c2cc(C(=O)O)ccc2c1C`, the figure is 150 °C; as for `Cc1cccc(NC(=O)C(F)(F)F)c1C(=O)O`, 168 to 169 °C; as for `C1CCC(OC2CCCCC2)CC1`, -36 °C.

`CCC(C)(CC)c1cc(NC(=O)c2c(OC)cccc2OC)on1` showed a melting point of 178 °C.

`CCCCCCCCCCCCCCCCC(C)C` gave a melting point of 15 °C. On to `Cc1ccc(C#N)cc1C`, for which the melting point lay in the range of 67 to 69 °C. The value for `CC(=O)C1CCC2C3C=CC4=CC(=O)CCC4(C)C3CCC12C` (configuration not stated) was 170 °C. The value for `Cc1ccc(N)c(Br)c1` was 26 °C; that for `N=c1sc(C(=O)c2cccs2)nn1-c1ccccc1` was 134 °C.

Consider `O=C1CCCC1C1CCCC1` (configuration not stated), for which the melting point was -13 °C. As for `Cc1cccc2cc3ccc4ccccc4c3cc12`, the figure is 118 °C. The value for `Cc1cccc(C)c1N(C)C` was -36 °C; that for `ClCc1ccc(Cl)c(Cl)c1` was 37.5 °C; that for `O=C(O)c1onc2ccccc12` was 185 °C. Turning to `Cc1onc(-c2c(Cl)cccc2Cl)c1C(=O)Cl`, the melting point lay in the range of 92 to 95 °C. Take `C1CC12CC2`: the melting point is -135 °C. As for `FC(Cl)(Cl)CCl`, the figure is -140 °C; as for `CCCCc1ccc(/N=N/c2ccc(OC)cc2)cc1`, 31 to 48 °C. Take `CSc1nn(-c2ccccc2)cc1C#N`: the melting point lay within 106 to 108 °C. Take `COc1ccccc1-c1ccc(C=CC(=O)c2ccco2)o1`: the melting point lay within 96 to 98 °C.

`CCOC(=O)c1c[nH]c2c(c1=O)CNN2C` returned a melting point of 138 to 140 °C. The value for `O=C(O)c1ccc(CSc2ccc(C(F)(F)F)cn2)o1` was 176 to 178 °C. In the case of `CC12CCC(=O)CC1CCC1C2CCC2(C)C1CCC21OCCS1` (configuration not stated), the melting point was found to be 201 °C. As for `NC(=O)NN=Cc1ccccc1`, the figure is 231 °C; as for `CC(C)(CC(=O)O)C(=O)O`, 140 °C. The value for `Cc1cc(N)n(-c2ccccc2)n1` was 116 °C; that for `COC(=O)C(C#N)=C(SCc1ccccc1)SCc1ccccc1` was 104 °C; that for `O=C(c1ccc(O)cc1)c1ccc(Cl)cc1` was 180 °C. `COC(=O)c1ccc(C(N)=NO)cc1` gave a melting point of 167 to 168 °C.

`O=C(O)CCSSCCC(=O)O` yielded a melting point of 158 °C. In the case of `CNC(C)=C(C(=O)OC)C(=O)c1cc(Cl)nc(Cl)c1`, the melting point was in the range of 112 to 115 °C. The value for `Oc1c(-c2ccc3ccccc3c2O)ccc2ccccc12` was 300 °C; that for `CC(C)(C)OC(=O)NC(CI)C(=O)OCc1ccccc1` (configuration not stated) was 81 °C; that for `Nc1c([N+](=O)[O-])cnc2ccccc12` was 273 to 275 °C. Molecule `CCOC(=O)c1sc(SC)c2c1CCCC2=O` had a melting point of 108 to 111 °C. In the case of `O=C(C(=S)Nc1ccc(Br)cc1)c1ccccc1`, the melting point is 118 °C.

The molecule `Cc1ccc(C(c2ccc(C)o2)c2cc(Br)ccc2O)o1` displayed a melting point of 97 °C. With `O=C(Cc1ccccc1)OCCc1ccccc1`, the melting point is 26.5 °C. As for `Nc1cc([N+](=O)[O-])ccc1Br`, the melting point was found to be 139 °C. The value for `COc1ccc(C#N)cn1` was 94 to 95 °C; that for `N#Cc1c(N)oc(-c2ccccc2)c1-c1ccccc1` was 205 to 208 °C; that for `ON=CC1=C(/C=C/c2ccccc2)CCC1` was 162 to 163 °C. As for `COC1=C/C(=N\O)C2(C)CCC1C2(C)C` (configuration not stated), the figure is 185 °C; as for `CCSCC(=O)O`, -8.5 °C. Molecule `Sc1ncnc2c1cnn2-c1ccccc1` yielded a melting point of 286 to 288 °C. Take `COc1ccc(-c2noc(C)c2C(=O)O)cc1`: the melting point lay within 190 to 195 °C. `CC(=O)c1ccc(N=C=O)cc1` came in with a melting point of 34 °C. The value for `COc1cc2c(cc1OC)C(CCO)NCC2` (configuration not stated) was 103 to 107 °C; that for `Cc1nc(=O)c2ccccc2[nH]1` was 232 °C. As to `CCOC(=O)C1=NC2Sc3sc(C(=O)OCC)cc3C(c3ccccc3)C2=C1N` (configuration not stated), the melting point turned out to be 133 °C. `O=[N+]([O-])c1ccc(/C=C/c2ccc3c(c2)OCO3)c([N+](=O)[O-])c1` gave a melting point of 178 to 179 °C. For the molecule `CCN(CC)CCNC(=O)c1cc(Cl)c(N)cc1OC`, the melting point was determined as 146 °C. Molecule `COc1ccc(C(=O)N=C=S)cc1` yielded a melting point of 23 to 25 °C. In the case of `COc1cc(C)c(Cl)cc1S(=O)(=O)Cl`, the melting point was determined as 127 °C. Turning to `CCOC(=O)c1c(-c2ccc(Br)cc2)csc1N`, the melting point was in the range of 120 to 122 °C. `CC(C)(C)NCC(O)COc1cccc2c1CC(O)C(O)C2` (configuration not stated): the melting point amounted to 124 °C.

As to `O=C(O)CSc1ccncc1`, the melting point was 251 to 255 °C.

`COc1cc(C(O)C(=O)O)ccc1O` (configuration not stated): the melting point lay in the range of 131 to 134 °C. `CCn1cc(C(=O)O)c(=O)c2cc(F)c(N3CCNCC3)nc21` returned a melting point of 222 °C. Turning to `O=[N+]([O-])c1cccnc1Oc1ccc(F)cc1`, the melting point lay in the range of 98 to 99 °C. With `O=C(O)CCC(F)(F)C(F)(F)C(F)(F)C(F)(F)C(F)(F)C(F)(F)F`, the melting point lay in the range of 62 to 64 °C. With `CC(CCC(=O)O)C1CCC2C(C(=O)O)C(C3(C)CCCCC3C(=O)O)CCC12C` (configuration not stated), the melting point was in the range of 265 to 267 °C. The value for `O=C(O)c1ccc(F)cc1Cl` was 185 °C; that for `CC(C)NCC(O)COc1ccc(CCOCC2CC2)cc1` (configuration not stated) was 71 °C. Molecule `Oc1ccc(Cl)cc1F` came in with a melting point of 20 °C.

`Nc1cc(F)ccc1C(F)(F)F` gave a melting point of 31 °C. In turn, `COC(=O)c1ccc(N)c(Cl)c1` returned a melting point of 113 °C. As for `CC(C)C(C)N` (configuration not stated), the figure is -50 °C; as for `O=C(c1cc(O)c(O)c(O)c1)c1ccc(O)c(O)c1O`, 270 °C. In the case of `Brc1cccc2cc(C=NNc3ccccc3)ccc12`, the melting point was 151 °C.

For the molecule `COP(=S)(OC)Oc1ccc([N+](=O)[O-])cc1Cl`, the melting point is 52.5 °C. In turn, `CCOC(=O)Cc1c(C(=O)OCC)[nH]c(C)c1C(=O)OCc1ccccc1` had a melting point of 110 to 112 °C. Molecule `CC(=O)c1ccc(-c2cccs2)s1` displayed a melting point of 109 to 114 °C.

Consider `Cc1nnc2sc(SCc3ccccc3)nn2c1=O`, for which the melting point lay within 171 to 172 °C.

For the molecule `COC(=O)c1ccccc1OC1OC(COC2OCC(O)C(O)C2O)C(O)C(O)C1O` (configuration not stated), the melting point was found to be 180 °C. In turn, `O=C(O)c1cccc(-c2ccco2)c1` returned a melting point of 157 to 158 °C. Consider `NC(Cc1ccc(O)c(I)c1)C(=O)O` (configuration not stated), for which the melting point is 205 °C. As for `Clc1ccc(Cl)c(-c2cc(Cl)c(Cl)c(Cl)c2)c1`, the figure is 105 °C.
